According to ChEMBL document CHEMBL1141633, “Synthesis and biological evaluation of chalcones as inhibitors of the voltage-gated potassium channel Kv1.3” (Bioorg Med Chem Lett, 2008):

Target: T1, Potassium voltage-gated channel subfamily A member 3 (Homo sapiens, UniProt P22001)
Assay: Inhibition in Kv1.3 expressed in human Jurkat cells by patch clamp method
Format: cell-based

T1 sequence (P22001 whole entry): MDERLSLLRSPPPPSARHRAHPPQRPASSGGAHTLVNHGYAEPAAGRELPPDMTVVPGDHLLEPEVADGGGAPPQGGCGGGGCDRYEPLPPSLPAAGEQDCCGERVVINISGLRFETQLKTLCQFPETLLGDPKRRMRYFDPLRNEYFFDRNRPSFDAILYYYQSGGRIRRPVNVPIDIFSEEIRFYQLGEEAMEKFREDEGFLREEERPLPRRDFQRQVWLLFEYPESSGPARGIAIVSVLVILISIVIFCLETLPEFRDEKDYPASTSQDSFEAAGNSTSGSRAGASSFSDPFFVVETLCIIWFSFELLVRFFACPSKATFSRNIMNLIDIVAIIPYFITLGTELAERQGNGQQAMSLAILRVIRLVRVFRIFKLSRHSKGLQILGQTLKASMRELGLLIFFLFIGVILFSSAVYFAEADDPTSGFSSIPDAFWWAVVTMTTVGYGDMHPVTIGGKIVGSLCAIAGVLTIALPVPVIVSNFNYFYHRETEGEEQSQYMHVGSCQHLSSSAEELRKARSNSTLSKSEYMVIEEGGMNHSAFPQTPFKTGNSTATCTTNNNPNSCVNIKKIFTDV

Structure (SMILES)	EC50
COc1cccc(/C=C(\C)C(=O)c2c(O)c(OC)c3occc3c2OC)c1	3000 nM
COc1cccc(/C=C/C(=O)c2cc3ccoc3c(OC)c2O)c1	1700 nM
COc1cccc(/C=C/C(=O)c2cc(OC)c3occc3c2OC)c1	2400 nM
COc1c(C(=O)/C=C/c2ccccc2)cc(OC)c2occc12	2400 nM
COc1cccc(/C=C/C(=O)c2c(O)c(OC)c3occc3c2OC)c1	900 nM

Target: T1, Potassium voltage-gated channel subfamily A member 3
Assay: Inhibition in Kv1.3 expressed in […] by patch clamp method

Structure (SMILES)	EC50
COc1c(C(=O)/C=C/c2ccccc2)c(O)cc2occc12	17000 nM
COc1c(C(=O)/C=C/c2ccccc2)c(O)c(OC)c2occc12	400 nM
COc1cccc(/C=C/C(=O)c2c(O)c(OC)c3occc3c2OC)c1	800 nM
